Laboratory results taken from article PMC7854658, “Structural basis for ligand recognition of the neuropeptide Y Y2 receptor” (Nature Communications, 2021).
Changes are numbered by the printed parent chain. Several values for one entry are separate records, joined by “and”; a condition that tells them apart may be missing. Identical values can stand only once.

What was measured:
Assay in all cases: NPY-induced IP accumulation (IP-One), mutant
Format in all cases: cell-based
Y2R mutant T308^7.36A = molecular target: T1, Y2R mutant T308^7.36A (Homo sapiens, UniProt P49146, T308A)
T1 construct: expressed in transfected cells; host or cells: HEK293
T1 sequence (P49146 1-381 T308A): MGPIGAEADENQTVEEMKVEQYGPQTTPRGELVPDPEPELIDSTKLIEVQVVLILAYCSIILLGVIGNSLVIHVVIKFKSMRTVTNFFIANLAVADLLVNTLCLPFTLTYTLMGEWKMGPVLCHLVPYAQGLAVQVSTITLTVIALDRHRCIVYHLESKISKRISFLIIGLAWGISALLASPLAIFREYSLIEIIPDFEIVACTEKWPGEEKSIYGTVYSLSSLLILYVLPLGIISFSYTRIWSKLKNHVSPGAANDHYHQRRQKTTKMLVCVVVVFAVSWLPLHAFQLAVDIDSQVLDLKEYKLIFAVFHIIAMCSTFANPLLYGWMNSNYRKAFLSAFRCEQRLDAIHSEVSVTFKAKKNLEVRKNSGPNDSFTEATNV
Protocol: (§1) The plasmid hY2R_eYFP_pVitro2 encoding the WT Y2R and a fluorophore for investigating the receptor localization was used as template for the generation of receptor point mutations as previously described. Mutagenesis PCR was performed using the Phusion High-Fidelity Polymerase (Thermo Fisher Scientific, Waltham, MA, USA). […] The preparations of the plasmid DNA were performed using the Wizard plus Mini or Midi DNA purification kit (Promega, Madison, WI, USA).
(§2) To determine the contribution of residues to antagonist binding, IP-One accumulation assays (Cisbio, Codolet, France) were performed. HEK293 cells were seeded into six-well plates and transiently cotransfected with 3200 ng of receptor plasmid DNA and 800 ng of the chimeric G protein (Gα∆6qi4myr) to redirect the Gαi signaling pathway to the Gαq phospholipase C pathway. Transient transfection was carried out using Metafectene as transfection reagent according to the manufacturer’s protocol (Biontex, Munich, Germany) over night. The cells were then reseeded into white 384-well microplates (Greiner Bio-One, Kremsmünster, Austria) at a density of 15,000 cells per well and grown for additional 24 h.
(§3) All dilutions were performed in HBSS containing 20 mM LiCl (stimulation buffer) and DMSO with a final concentration of 0.01%.
(§4) To determine the amount of cellular IPs, the FRET acceptor (IP1-d2) and the FRET donor (anti-IP1-Cryptate) were reconstituted and diluted in lysis and detection buffer (1:20) as described in the manufacturer’s protocol. Three microliters of both solutions were added, and the cells were incubated on a tumbler for 60 min.

Y2R mutant H285^6.52T = molecular target: T2, Y2R mutant H285^6.52T (Homo sapiens, UniProt P49146, H285T)
T2 construct: expressed in transfected cells; host or cells: HEK293
T2 sequence (P49146 1-381 H285T): T1 sequence (P49146 1-381 T308A) with H285T, A308T
Protocol: as §1, §2, §3, §4

Y2R mutant F307^7.35A = molecular target: T3, Y2R mutant F307^7.35A (Homo sapiens, UniProt P49146, F307A)
T3 construct: expressed in transfected cells; host or cells: HEK293
T3 sequence (P49146 1-381 F307A): T1 sequence (P49146 1-381 T308A) with F307A, A308T
Protocol: as §1, §2, §3, §4

Y2R mutant L183^4.60A = molecular target: T4, Y2R mutant L183^4.60A (Homo sapiens, UniProt P49146, L183A); conditions: 1 μM antagonist, source data Fig. 3
T4 construct: expressed in transfected cells; host or cells: HEK293
Protocol: as §1, §2, §3, §4

Y2R mutant L284^6.51A = molecular target: T5, Y2R mutant L284^6.51A (Homo sapiens, UniProt P49146, L284A)
T5 construct: expressed in transfected cells; host or cells: HEK293
T5 sequence (P49146 1-381 L284A): T1 sequence (P49146 1-381 T308A) with L284A, A308T
Protocol: as §1, §2, §3, §4

Y2R mutant F307^7.35E = molecular target: T6, Y2R mutant F307^7.35E (Homo sapiens, UniProt P49146, F307E); conditions: 1 μM antagonist, source data Fig. 3
T6 construct: expressed in transfected cells; host or cells: HEK293
Protocol: as §1, §2, §3, §4

Y2R mutant L224^5.43A = molecular target: T7, Y2R mutant L224^5.43A (Homo sapiens, UniProt P49146, L224A); conditions: 1 μM antagonist, source data Fig. 3
T7 construct: expressed in transfected cells; host or cells: HEK293
Protocol: as §1, §2, §3, §4

[1] = 1 μM antagonist, source data Fig. 3
[2] = EC50(NPY + 1 μM antagonist)/EC50(NPY)
[3] = EC50 ratio (WT)/EC50 ratio (mutant)

T6 sequence (P49146 whole entry F307E): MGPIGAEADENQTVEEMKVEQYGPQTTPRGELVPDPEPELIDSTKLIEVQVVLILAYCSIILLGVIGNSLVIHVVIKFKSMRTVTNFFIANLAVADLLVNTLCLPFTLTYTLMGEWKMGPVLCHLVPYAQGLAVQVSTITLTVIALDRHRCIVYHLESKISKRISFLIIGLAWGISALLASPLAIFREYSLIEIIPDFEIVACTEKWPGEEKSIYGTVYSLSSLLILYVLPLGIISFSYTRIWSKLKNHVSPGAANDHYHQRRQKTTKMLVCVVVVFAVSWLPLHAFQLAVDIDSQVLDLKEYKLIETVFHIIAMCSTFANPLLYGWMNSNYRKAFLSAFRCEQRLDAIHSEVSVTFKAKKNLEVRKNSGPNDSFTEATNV
T4 sequence (P49146 whole entry L183A): as the sequence (P49146 whole entry F307E) above, with L183A, E307F counted along it
T7 sequence (P49146 whole entry L224A): as the sequence (P49146 whole entry F307E) above, with L224A, E307F counted along it

## N=C(N)NCCC[C@H](NC(=O)CC1(CC(=O)N2CCN(C3c4ccccc4NC(=O)c4ccccc43)CC2)CCCC1)C(=O)NCCn1c(=O)n(-c2ccccc2)n(-c2ccccc2)c1=O (stereo partly drawn) [BIIE0246]
Y2R mutant T308^7.36A; [1]
  Average EC50 ratio: 233.8
  EC50 ratio (individual experiments): 248.2 and 219.5
Y2R mutant T308^7.36A; [2]
  EC50 ratio: 248 and 219
Y2R mutant T308^7.36A; [3]
  Ratio change (fold): 0.6 fold and 0.7 fold
Y2R mutant H285^6.52T; [1]
  Average EC50 ratio: 2.7
  EC50 ratio (individual experiments): 3.5 and 1.9
Y2R mutant H285^6.52T; [3]
  Ratio change (fold): 45 fold and 84 fold
Y2R mutant F307^7.35A; [1]
  Average EC50 ratio: 89.4
  EC50 ratio (individual experiments): 68.0 and 110.9
Y2R mutant F307^7.35A; [2]
  EC50 ratio: 68 and 111
Y2R mutant F307^7.35A; [3]
  Ratio change (fold): 2 fold and 1.4 fold
Y2R mutant L183^4.60A
  Average EC50 ratio: 10.3
  EC50 ratio (individual experiments): 6.3 and 14.3
Y2R mutant L284^6.51A; [1]
  Average EC50 ratio: 108.6
  EC50 ratio (individual experiments): 88.8 and 128.4
Y2R mutant L284^6.51A; [2]
  EC50 ratio: 89 and 128
Y2R mutant L284^6.51A; [3]
  Ratio change (fold): 1.8 fold and 1.2 fold
Y2R mutant F307^7.35E
  Average EC50 ratio: 232.3
  EC50 ratio (individual experiments): 75.3 and 389.3
Y2R mutant L224^5.43A
  Average EC50 ratio: 738.6
  EC50 ratio (individual experiments): 1348.6 and 128.7
